Data set [1] can be described thus: Population average serum elimination rate and half-life (linear mixed model, one compartment, first-order). Particulars: for Average serum half-life / Constant elimination rate (95% CI) / Half-life (95% CI) / half-life: population average; for Reduction of half-life estimation after subtraction of background levels: sensitivity analysis vs model with original serum levels; for half-life: serum, oral. Here is the method: Serum PFAS concentrations were log-transformed. Time was calculated as the elapsed days between supply of clean bottled water and […] blood sampling. We assumed one compartment, first-order elimination kinetics. In this kinetic model, the body is considered as one homogeneous volume in which mixing is instantaneous and from which PFAS could be absorbed, transferred, and eliminated according to the rate of elimination that is proportional to the concentration of PFAS in the body. Two methods were used to estimate serum elimination rate constant (k) and half-life for each PFAS:
Briefly, in the linear mixed model In Cij=αi+tijβ+Xiβ′+εij, Cij is the serum concentration of PFAS for individual i at sampling round j; αi is the subject-specific intercept (random intercept); tij is the time; β is the average slope; Xi is a vector of fixed covariates for individual i; β′ stands for the fixed effect coefficients; and εij is the random error term. We modified the model by excluding the subject-specific slope (random slope) due to a failure to converge after inclusion, which may be due to the limited number of study subjects. The negative value of the average slope ( −β ) is the population average k, and average half-life is calculated as ln2/k .
In the linear mixed model, we included only age and sex as covariates. We based covariate selection on factors that could conceivably confound the PFAS half-life estimation. Working task, duration of employment, number of glasses of water per day, blood donation, and pregnancy before mitigation of PFAS exposure from drinking water can influence the initial serum levels but would not be expected to influence the PFAS half-life.
A sensitivity analysis was performed using the same linear mixed model but with Cij as the serum levels after subtracting general background levels (using the median levels obtained from the nonexposed reference population). If the serum PFAS levels after subtraction were lower than the half of the background levels, they were replaced with half of the background levels.

The conditions of data set [2]: cited from earlier work; for Estimated half-life (geometric mean): Chinese population, from renal clearance of single paired serum and urine samples, ref Zhang et al. 2013.
Details of data set [3]: method as in Olsen et al. 2009. Particulars: occupationally exposed workers; ref Olsen et al. 2009; cited from earlier work.
Details of data set [4]: method as in Zhang et al. 2015. Particulars: ref Zhang et al. 2015, cited from earlier work.
Where [5] appears, read: linear mixed model with original serum levels, 17 airport employees after end of drinking-water exposure.
The mark [6] stands for this setting: model with original serum levels, age and sex as covariates.
Where [7] appears, read: model with serum levels after subtraction of background exposure (sensitivity analysis).
[8] abbreviates: highly exposed general population from Ronneby, Sweden, 108 Swedes, 5 y follow-up, ref Li et al. 2019.
Setting [9] is: human, Half-life (95% CI), model with original serum levels, age and sex as covariates.
[10] abbreviates: human, Half-life (95% CI), model with serum levels after subtraction of background exposure (sensitivity analysis).
[11] abbreviates: general Swedish population (Ronneby, 106 Swedes) with high exposure through drinking water, 2 y follow-up from 6 months after clean water, ref Li et al. 2018.

Here are results for eleven molecules from PMC7351026, “Serum Half-Lives for Short- and Long-Chain Perfluoroalkyl Acids after Ceasing Exposure from Drinking Water Contaminated by Firefighting Foam” (Environmental Health Perspectives, 2020).

Read-outs that look alike come from different tables or passages of the source. Marks after values point to notes of the source that are not given here.

Turning to `O=S(=O)(O)C(F)(F)C(F)(F)C(F)(F)C(F)(F)C(F)(F)C(F)(F)C(F)(F)F` [PFHpS, perfluoroheptane sulfonic acid], the “Average half-life longer than that of the PFCA with same number of carbon atoms” value in data set [1] (PFHpS vs PFHpA, PFOS vs PFOA) is about 1.3 y. This molecule also registered an Average serum half-life in data set [1] (setting [5]) of 1.46 y. In data set [1] (setting [6]), the “Constant elimination rate (95% CI)” value is listed as 0.48 (0.11, 0.84) yearly and the “Half-life (95% CI)” value is 1.46 (0.83, 6.25) year. For the same molecule, in data set [1] (setting [7]), the “Constant elimination rate (95% CI)” value was 0.51 (0.12, 0.9) yearly and the “Half-life (95% CI)” value is on record as 1.35 (0.77, 5.71) year. Further, the “Reduction of half-life estimation after subtraction of background levels” value (shortened to “Reduction of half-life estimation”) in data set [1] is given as 8%. Further, the Average half-life in data set [2] (setting [8]) is 4.7 y.

Regarding “Perfluoro-2/6-methylheptanesulfonate [2/6m-PFOS]”, the “Constant elimination rate (95% CI)” value is recorded as 0.66 (0.29, 1.04) yearly in data set [1] (setting [6]) and 0.95 (0.39, 1.5) yearly in data set [1] (setting [7]). Also, the “Half-life (95% CI)” value is reported as 1.04 (0.67, 2.42) year in data set [1] (setting [6]) and 0.73 (0.46, 1.76) year in data set [1] (setting [7]).

Take `O=S(=O)(O)C(F)(F)C(F)(F)C(F)(F)C(F)(F)F` [PFBS, perfluorobutane sulfonic acid]: in data set [1] (setting [6]), the “Constant elimination rate (95% CI)” value is reported as 5.96 (4.65, 7.27) yearly and the “Half-life (95% CI)” value is reported as 0.12 (0.1, 0.15)^d year. In addition, the “Half-life (geometric mean)” value in data set [2] (occupationally exposed workers followed up to 180 d, ref Olsen et al. 2009) was 25.8 days. The “Serum level, average” value in data set [3] was 0.397 µg/mL.

For “perfluoro-3/4/5-methylheptanesulfonate [3/4/5m-PFOS]”, in data set [1] (setting [6]), the “Constant elimination rate (95% CI)” value is 0.64 (0.18, 1.1) yearly and the “Half-life (95% CI)” value is on record as 1.09 (0.63, 3.96) year. Besides, in data set [1] (setting [7]), the “Constant elimination rate (95% CI)” value was 0.83 (0.24, 1.42) yearly and the “Half-life (95% CI)” value is 0.83 (0.49, 2.84) year.

As to `O=C(O)C(F)(F)C(F)(F)C(F)(F)C(F)(F)C(F)(F)F` [PFHxA, perfluorohexanoic acid], the “Half-life (95% CI)” value in data set [1] (setting [6]) is 1.63 (NA) year. Further, the Apparent elimination half-life in data set [2] (whole blood, seven ski wax technicians, ref Russell et al. 2013) is 32 days.

Turning to `O=C(O)C(F)(F)C(F)(F)C(F)(F)C(F)(F)C(F)(F)C(F)(F)C(F)(F)F` [PFOA, perfluorooctanoic acid], the half-life in data set [1] (setting [9]) was 646 days; in data set [1] (setting [10]), 541 days; in data set [2] (138 Germans, 2-y follow-up, ref Brede et al. 2010) it was 3.3 y; in data set [2] (200 Americans, 1-y follow-up, ref Bartell et al. 2010), 2.3 y. In addition, the Average serum half-life in data set [1] (setting [5]) is 1.77 y. The “Constant elimination rate (95% CI)” value in data set [1] (setting [6]) is listed as 0.39 (0.3, 0.49) yearly; in data set [1] (setting [7]) it was 0.47 (0.35, 0.58) yearly. In data set [1], the “Reduction of half-life estimation” value is 16%. The results for the Urine/serum ratio in data set [4] (nonpregnant women) and in data set [4] (pregnant women) were 0.0028 and 0.0011, respectively. The Average half-life in data set [2] (26 retired fluorochemical production workers, 5-y follow-up, ref Olsen et al. 2007) was 3.8 y; in data set [2] (setting [11]), 2.7 y.

In the case of `O=S(=O)(O)C(F)(C(F)(F)F)C(F)(F)C(F)(F)C(F)(F)C(F)(F)C(F)(F)C(F)(F)F` (stereo not shown) [1m-PFOS, perfluoro-1-methylheptanesulfonate], in data set [1] (setting [6]), the “Constant elimination rate (95% CI)” value is reported as 0.55 (0.09, 1.01) yearly and the “Half-life (95% CI)” value was 1.27 (0.69, 7.64) year. In addition, in data set [1] (setting [7]), the “Constant elimination rate (95% CI)” value is on record as 0.75 (0.15, 1.36) yearly and the “Half-life (95% CI)” value was 0.92 (0.51, 4.77) year.

As for `O=S(=O)(O)C(F)(F)C(F)(F)C(F)(F)C(F)(F)C(F)(F)C(F)(F)C(F)(F)C(F)(F)F` [L-PFOS, linear perfluorooctane sulfonic acid], in data set [1] (setting [6]), the “Constant elimination rate (95% CI)” value is listed as 0.24 (0.07, 0.4) yearly and the “Half-life (95% CI)” value is reported as 2.91 (1.71, 9.63) year. Moreover, in data set [1] (setting [7]), the “Constant elimination rate (95% CI)” value was 0.41 (0.11, 0.71) yearly and the “Half-life (95% CI)” value is 1.69 (0.98, 6.04) year. The “Reduction of half-life estimation” value in data set [1] is reported as 42%. For the same molecule, in data set [2] (setting [11]), the Average half-life is 3.4 y.

As for `O=S(=O)(O)C(F)(F)C(F)(F)C(F)(F)C(F)(F)C(F)(F)F` [PFPeS, perfluoropentane sulfonic acid], in data set [1] (human, in vivo), the “Half-life shorter than L-PFOS” value amounted to 4 times. Also, in data set [1] (setting [6]), the “Constant elimination rate (95% CI)” value is recorded as 1.1 (0.68, 1.51) yearly and the “Half-life (95% CI)” value was 0.63 (0.46, 1.01) year. In data set [1] (setting [7]), the “Constant elimination rate (95% CI)” value is listed as 1.1 (0.68, 1.52) yearly and the “Half-life (95% CI)” value is listed as 0.63 (0.46, 1.01) year. The Average half-life in data set [2] (setting [8]) is 1.0 y.

`O=C(O)C(F)(F)C(F)(F)C(F)(F)C(F)(F)C(F)(F)C(F)(F)F` [PFHpA, perfluoroheptanoic acid]: the half-life is 62 days in data set [1] (human, Average serum half-life, linear mixed model with original serum levels, 17 airport employees after end of drinking-water exposure) and 62.1 days in data set [1] (setting [9]). In addition, the “Constant elimination rate (95% CI)” value in data set [1] (setting [6]) is on record as 4.11 (3.13, 5.09) yearly. For the same molecule, the “Estimated half-life (geometric mean)” value was 1.0 y in data set [2] (older females plus males) and 0.82 y in data set [2] (young females). In addition, the “First-order apparent elimination half-life (geometric mean)” value in data set [2] (whole blood, five ski wax technicians, 7 months follow-up, ref Russell et al. 2015a) is 70 days.

As for `O=S(=O)(O)C(F)(F)C(F)(F)C(F)(F)C(F)(F)C(F)(F)C(F)(F)F` [PFHxS, perfluorohexane sulfonic acid], the half-life in data set [1] (setting [9]) and in data set [1] (setting [10]) was 1040 days throughout. For the same molecule, the “Constant elimination rate (95% CI)” value is on record as 0.24 (0.16, 0.33) yearly in data set [1] (setting [6]) and 0.24 (0.16, 0.33) yearly in data set [1] (setting [7]). Moreover, the Average half-life in data set [2] (setting [11]) is 5.3 y.
